The target in test [1] is T1, Ephrin type-B receptor 4 (Homo sapiens) (UniProt P54760).
T1 sequence (whole entry): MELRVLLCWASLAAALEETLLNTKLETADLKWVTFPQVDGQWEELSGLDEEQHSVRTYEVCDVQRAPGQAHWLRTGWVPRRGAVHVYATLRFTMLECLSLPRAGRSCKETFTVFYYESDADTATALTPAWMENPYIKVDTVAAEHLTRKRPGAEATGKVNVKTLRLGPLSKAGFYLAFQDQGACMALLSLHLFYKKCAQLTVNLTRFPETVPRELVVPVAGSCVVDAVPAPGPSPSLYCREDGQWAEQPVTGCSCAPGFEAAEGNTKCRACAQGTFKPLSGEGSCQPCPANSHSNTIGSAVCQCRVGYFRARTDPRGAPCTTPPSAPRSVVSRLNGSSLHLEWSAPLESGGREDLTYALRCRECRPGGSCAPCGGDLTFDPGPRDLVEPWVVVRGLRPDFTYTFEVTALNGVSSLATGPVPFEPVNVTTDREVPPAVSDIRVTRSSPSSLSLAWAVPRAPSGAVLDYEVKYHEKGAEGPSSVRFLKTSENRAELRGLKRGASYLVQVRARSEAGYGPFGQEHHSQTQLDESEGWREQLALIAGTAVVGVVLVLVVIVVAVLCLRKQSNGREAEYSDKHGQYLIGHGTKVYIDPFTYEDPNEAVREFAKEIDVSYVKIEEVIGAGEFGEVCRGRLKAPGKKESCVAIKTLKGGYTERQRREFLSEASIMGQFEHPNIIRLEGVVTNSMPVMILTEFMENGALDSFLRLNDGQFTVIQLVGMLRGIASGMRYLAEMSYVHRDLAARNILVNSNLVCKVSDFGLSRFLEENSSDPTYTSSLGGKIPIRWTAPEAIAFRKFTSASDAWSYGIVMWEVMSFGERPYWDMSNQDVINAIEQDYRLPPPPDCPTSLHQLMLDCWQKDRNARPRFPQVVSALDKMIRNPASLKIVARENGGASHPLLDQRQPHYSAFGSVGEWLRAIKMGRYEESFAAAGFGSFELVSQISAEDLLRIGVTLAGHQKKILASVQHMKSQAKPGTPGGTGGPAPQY
Briefly: Selectivity interaction (Upstate Kinase Profiler service (Millipore)) EUB0000056c EPHB4. Particulars: at 1 µM.

Test [2] addresses Receptor tyrosine-protein kinase erbB-4 (Homo sapiens, UniProt Q15303). The test is described as follows: Selectivity interaction (Radiometric kinase assay (using 10 uM ATP)) EUB0000601a ERBB4.
The test system of test [3] is Serine/threonine-protein kinase B-raf (Homo sapiens), P15056 [V600E]. Particulars: at 10 µM.
Sequence of Serine/threonine-protein kinase B-raf (Homo sapiens), P15056 [V600E] (P15056 whole entry V600E): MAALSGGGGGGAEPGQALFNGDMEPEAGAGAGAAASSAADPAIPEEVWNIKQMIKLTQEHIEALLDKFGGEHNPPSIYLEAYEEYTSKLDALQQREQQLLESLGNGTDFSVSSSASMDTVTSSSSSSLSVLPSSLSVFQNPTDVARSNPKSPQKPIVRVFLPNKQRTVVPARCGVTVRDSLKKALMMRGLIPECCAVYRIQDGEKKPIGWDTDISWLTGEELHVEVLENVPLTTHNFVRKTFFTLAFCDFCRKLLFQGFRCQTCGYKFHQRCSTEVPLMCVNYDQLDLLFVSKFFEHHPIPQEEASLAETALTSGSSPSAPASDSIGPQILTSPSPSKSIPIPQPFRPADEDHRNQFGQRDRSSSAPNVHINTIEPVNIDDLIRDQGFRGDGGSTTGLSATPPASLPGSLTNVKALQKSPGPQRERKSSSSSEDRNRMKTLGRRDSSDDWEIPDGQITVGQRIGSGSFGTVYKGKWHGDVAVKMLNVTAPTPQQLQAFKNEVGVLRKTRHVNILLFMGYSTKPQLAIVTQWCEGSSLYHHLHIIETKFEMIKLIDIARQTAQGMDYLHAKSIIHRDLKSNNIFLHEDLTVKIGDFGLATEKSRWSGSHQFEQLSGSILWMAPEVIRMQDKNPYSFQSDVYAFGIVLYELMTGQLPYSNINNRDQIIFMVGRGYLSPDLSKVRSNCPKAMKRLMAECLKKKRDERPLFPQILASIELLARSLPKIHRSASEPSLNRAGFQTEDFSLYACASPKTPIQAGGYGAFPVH
Test [4] deals with T2, 5-hydroxytryptamine receptor 1A (Homo sapiens) (UniProt P08908).
T2 sequence (whole entry): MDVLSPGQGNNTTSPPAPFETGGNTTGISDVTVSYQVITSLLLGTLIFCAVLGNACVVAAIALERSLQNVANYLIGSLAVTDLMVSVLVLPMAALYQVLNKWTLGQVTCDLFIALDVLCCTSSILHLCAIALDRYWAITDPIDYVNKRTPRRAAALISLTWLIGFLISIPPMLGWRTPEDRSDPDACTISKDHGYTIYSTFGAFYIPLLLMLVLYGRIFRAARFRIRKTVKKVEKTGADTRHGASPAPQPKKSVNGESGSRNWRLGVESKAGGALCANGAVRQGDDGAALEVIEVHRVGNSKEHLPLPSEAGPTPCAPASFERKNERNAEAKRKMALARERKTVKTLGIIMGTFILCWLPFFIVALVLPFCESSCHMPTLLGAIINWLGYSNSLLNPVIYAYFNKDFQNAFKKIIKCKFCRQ
Briefly: Selectivity interaction (Panel of non-epigenetic targets (kinases, GPCRs, ion channels, and transporters, Eurofins) ) EUB0000271b HTR1A. The settings on record: at 1 µM.

The target in test [5] is T3, Serine/threonine-protein kinase Sgk1 (Homo sapiens) (UniProt O00141).
T3 sequence (whole entry): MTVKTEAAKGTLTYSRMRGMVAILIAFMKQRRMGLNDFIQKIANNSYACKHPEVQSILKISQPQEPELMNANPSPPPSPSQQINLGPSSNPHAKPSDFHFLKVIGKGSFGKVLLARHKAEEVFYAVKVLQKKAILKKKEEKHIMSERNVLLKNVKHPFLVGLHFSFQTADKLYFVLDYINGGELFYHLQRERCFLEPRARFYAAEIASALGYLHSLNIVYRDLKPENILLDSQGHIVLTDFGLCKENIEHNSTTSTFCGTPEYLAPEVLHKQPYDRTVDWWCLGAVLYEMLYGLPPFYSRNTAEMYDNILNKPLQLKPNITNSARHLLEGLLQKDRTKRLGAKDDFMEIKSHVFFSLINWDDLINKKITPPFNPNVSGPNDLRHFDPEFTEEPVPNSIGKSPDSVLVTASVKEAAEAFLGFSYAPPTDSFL
Briefly: Selectivity interaction (Kinase panel (literature)) EUB0001199aCl SGK1. The settings on record: at 1 µM.

The target of test [6] is Receptor-interacting serine/threonine-protein kinase 3 (Homo sapiens) (UniProt Q9Y572). The test is described as follows: Selectivity interaction (Kinase panel (KiNativ target engagement assay in Jurkat cells)) EUB0001635a RIPK3. In kind it is cell-based. The settings on record: Selectivity number of off-targets 0.0, Selectivity number of targets 233.0, Source Knowledge https://www.sciencedirect.com/science/article/pii/S2451945619300674?via%3Dihub, at 1 µM.
Sequence of Receptor-interacting serine/threonine-protein kinase 3 (Homo sapiens) (Q9Y572 whole entry, looked up): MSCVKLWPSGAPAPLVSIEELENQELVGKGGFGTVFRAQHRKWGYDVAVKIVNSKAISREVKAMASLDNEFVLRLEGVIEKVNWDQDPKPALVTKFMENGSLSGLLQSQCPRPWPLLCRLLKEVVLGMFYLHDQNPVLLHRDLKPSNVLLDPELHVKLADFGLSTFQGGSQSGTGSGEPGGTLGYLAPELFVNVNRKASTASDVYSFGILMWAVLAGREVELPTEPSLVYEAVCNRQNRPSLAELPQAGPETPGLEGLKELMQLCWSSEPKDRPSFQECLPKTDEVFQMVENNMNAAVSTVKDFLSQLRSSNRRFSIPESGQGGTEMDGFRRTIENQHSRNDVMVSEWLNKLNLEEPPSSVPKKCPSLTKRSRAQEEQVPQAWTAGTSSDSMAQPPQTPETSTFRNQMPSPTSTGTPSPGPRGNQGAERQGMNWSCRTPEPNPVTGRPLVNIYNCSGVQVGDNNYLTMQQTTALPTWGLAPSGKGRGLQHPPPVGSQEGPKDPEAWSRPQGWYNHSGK

Sequence of Receptor tyrosine-protein kinase erbB-4 (Q15303 whole entry): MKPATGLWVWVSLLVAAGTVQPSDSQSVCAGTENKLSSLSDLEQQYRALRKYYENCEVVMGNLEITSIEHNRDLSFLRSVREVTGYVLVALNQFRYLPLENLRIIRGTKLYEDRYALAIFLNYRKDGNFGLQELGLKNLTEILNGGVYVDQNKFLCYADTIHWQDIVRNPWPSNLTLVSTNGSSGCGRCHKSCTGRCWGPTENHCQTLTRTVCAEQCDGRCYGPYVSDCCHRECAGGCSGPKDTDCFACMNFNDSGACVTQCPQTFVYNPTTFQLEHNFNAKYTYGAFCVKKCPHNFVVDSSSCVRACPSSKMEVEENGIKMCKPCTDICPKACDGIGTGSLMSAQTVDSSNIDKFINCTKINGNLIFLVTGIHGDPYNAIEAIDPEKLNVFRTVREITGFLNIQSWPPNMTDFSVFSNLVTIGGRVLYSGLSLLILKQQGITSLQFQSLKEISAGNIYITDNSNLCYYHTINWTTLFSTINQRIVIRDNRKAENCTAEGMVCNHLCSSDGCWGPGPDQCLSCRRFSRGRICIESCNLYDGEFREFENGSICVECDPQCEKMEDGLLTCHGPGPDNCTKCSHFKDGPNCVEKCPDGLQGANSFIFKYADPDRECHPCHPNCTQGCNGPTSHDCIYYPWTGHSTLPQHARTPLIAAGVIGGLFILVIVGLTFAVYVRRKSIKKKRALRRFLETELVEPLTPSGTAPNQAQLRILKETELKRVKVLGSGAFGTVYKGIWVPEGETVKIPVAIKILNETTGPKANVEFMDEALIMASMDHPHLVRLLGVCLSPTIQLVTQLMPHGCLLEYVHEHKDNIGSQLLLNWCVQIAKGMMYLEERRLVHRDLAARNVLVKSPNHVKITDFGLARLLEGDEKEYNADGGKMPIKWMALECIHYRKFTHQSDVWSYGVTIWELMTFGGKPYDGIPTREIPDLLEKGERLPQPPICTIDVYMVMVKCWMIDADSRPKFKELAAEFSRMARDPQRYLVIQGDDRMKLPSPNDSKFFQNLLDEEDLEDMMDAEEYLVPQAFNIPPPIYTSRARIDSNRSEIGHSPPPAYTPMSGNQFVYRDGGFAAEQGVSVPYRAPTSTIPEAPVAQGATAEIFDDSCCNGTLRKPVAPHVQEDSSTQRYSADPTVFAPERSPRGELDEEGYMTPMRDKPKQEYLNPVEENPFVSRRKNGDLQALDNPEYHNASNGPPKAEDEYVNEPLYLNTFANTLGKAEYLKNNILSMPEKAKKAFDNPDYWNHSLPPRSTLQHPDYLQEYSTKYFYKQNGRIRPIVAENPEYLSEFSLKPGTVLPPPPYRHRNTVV

With `Cc1ccc(-c2ccc3c(ccc4sc5c(c43)NC[C@@H](C)NC5=O)n2)cn1`, the % of inhibition in test [1] was -11%.
As for `CCc1cc(Nc2nccc(-c3c(-c4ccc(OC)c(C(=O)Nc5c(F)cccc5F)c4)nc4ccccn34)n2)c(OC)cc1N1CCC(N2CCN(S(C)(=O)=O)CC2)CC1`, the IC50 in test [2] is greater than 250 µM.
In test [3], `CCN(CC)CCCCNc1ncc2cc(-c3cc(OC)cc(OC)c3)c(NC(=O)NC(C)(C)C)nc2n1` yielded a % of control of 100%.
On to `Cc1cc(C)cc([C@@H]2c3cc(C)ccc3NC(=O)CN2C(=O)c2ccc(Br)s2)c1`, for which, in test [4], the % of inhibition was found to be 5%.
On to `CN1Cc2nccc(-c3cn(C)nc3-c3ccc(F)cc3)c2C1=O`, for which the % of inhibition in test [5] worked out at 2%.
As to `C=CC(=O)Nc1ccc(C(=O)Nc2[nH]nc3c2CN(C(=O)N[C@H](CN(C)C)c2ccccc2)C3(C)C)cc1`, the % of engagement in test [6] is -0.8%.

For orientation: IC50 means the concentration that inhibits the measured activity by half. Read a low IC50 as inhibition by little substance.

These data come from ChEMBL document CHEMBL5465560, “Selectivity Literature for EUbOPEN Chemogenomic Library” (2024).
